# From publication PMC9486086, “Development of a UPLC-MS/MS method for the determination of orelabrutinib in rat plasma and its application in pharmacokinetics” (Frontiers in Pharmacology, 2022)
# Read-outs that look alike come from different tables or passages of the source.
# Columns and labels:
# [1] = design: method as in Zhang et al., 2020; details: oral, ref Zhang et al., 2020, cited from earlier work
# [2] = Stability of orelabrutinib in rat plasma under storage and analytical conditions; format: in vitro ADME; details: for Measured concentration, Mean ± SD / RE (relative error vs nominal): n = 5
# Experimental: To investigate the stability of orelabrutinib in rat plasma, QC plasma samples of three concentrations were placed in different environments to examine the short-term, long-term, three freeze-thaw cycles and stability at 10°C. Short-term stability was determined by placing plasma samples at room temperature for at least 3 h. Long-term stability was determined by testing plasma samples after 21 days of storage at −80°C. The stability of the plasma samples was evaluated by measuring the stability of three freeze-thaw cycles from freezing (−80°C) to thawing (room temperature) three times. In addition, the stability was determined by storing the prepared plasma samples in an autosampler (10°C) for 4 h.
# [3] = Pharmacokinetic study in rats after single oral dose (UPLC-MS/MS, non-compartmental analysis); format: in vivo; details: male, Sprague-Dawley, rat, plasma, single oral dose of 10 mg/kg, n = 6, mean ± SD
# From the text: Six male Sprague-Dawley (SD) Rats (weighing 250 ± 20 g) were obtained from the Laboratory Animal Center of The First Affiliated Hospital of Wenzhou Medical University (Zhejiang, China). They were housed in an environmentally controlled rearing chamber and given food and water that met the standard for 1 week. The animal experiment was approved by the Ethics Committee for the Protection and Use of Laboratory Animals of The First Affiliated Hospital of Wenzhou Medical University (Zhejiang, China).
# The rats were fasted for 12 h before the start of the experiment and were given free access to water. Oral gavage was administered to rats at a dose of 10 mg/kg of orelabrutinib dissolved in 0.5% sodium carboxymethylcellulose (CMC-Na). Blood was collected at different collection points at 0.333, 0.667, 1, 1.5, 2, 3, 4, 6, 8, 12, 24 and 48 h after administration. After collected, blood in centrifuge tube was centrifuged for 10 min at 13,000 × g at room temperature, and 100 μl of plasma was separated and stored at −80°C prior to analysis. The concentrations of the analyte were determined using this validated UPLC-MS/MS method, while the non-compartmental model was analyzed using DAS 2.0 software (Drug and Statistical Software of the Shanghai Mathematical Pharmacology Professional Committee, China), and pharmacokinetic parameters were calculated.
# [4] = prepared plasma samples, autosampler 10°C for 4 h, nominal 2 ng/ml
# [5] = prepared plasma samples, autosampler 10°C for 4 h, nominal 200 ng/ml
# [6] = prepared plasma samples, autosampler 10°C for 4 h, nominal 1600 ng/ml
# [7] = rat plasma, 21 days at −80°C, nominal 2 ng/ml
# [8] = rat plasma, 21 days at −80°C, nominal 200 ng/ml
# [9] = rat plasma, 21 days at −80°C, nominal 1600 ng/ml
# [10] = rat plasma, room temperature at least 3 h, nominal 2 ng/ml
# [11] = rat plasma, room temperature at least 3 h, nominal 200 ng/ml
# [12] = rat plasma, three freeze-thaw cycles (−80°C to room temperature), nominal 2 ng/ml
# [13] = rat plasma, three freeze-thaw cycles (−80°C to room temperature), nominal 200 ng/ml
# [14] = rat plasma, three freeze-thaw cycles (−80°C to room temperature), nominal 1600 ng/ml
structure (smiles),measurement,setting,value
C=CC(=O)N1CCC(c2ccc(C(N)=O)c(-c3ccc(Oc4ccccc4)cc3)n2)CC1 [Orelabrutinib],Dose dependence of AUC and Cmax,"[1]; 64 healthy subjects, single 20-400 mg or multiple doses for 14 days",increased proportionally
same,Cmax,"[1]; healthy subjects, dose not stated",~300 ng/mL
same,"Measured concentration, Mean ± SD",[2]; [4],2.0 ± 0.1 ng/mL
same,RE (relative error vs nominal),[2]; [4],−0.2%
same,"Measured concentration, Mean ± SD",[2]; [5],208.0 ± 5.3 ng/mL
same,RE (relative error vs nominal),[2]; [5],4.0%
same,"Measured concentration, Mean ± SD",[2]; [6],1649.2 ± 25.3 ng/mL
same,RE (relative error vs nominal),[2]; [6],3.1%
same,"Measured concentration, Mean ± SD",[2]; [7],2.1 ± 0.1 ng/mL
same,RE (relative error vs nominal),[2]; [7],5.4%
same,"Measured concentration, Mean ± SD",[2]; [8],212.6 ± 7.3 ng/mL
same,RE (relative error vs nominal),[2]; [8],6.3%
same,"Measured concentration, Mean ± SD",[2]; [9],1389.2 ± 147.3 ng/mL
same,RE (relative error vs nominal),[2]; [9],−13.2%
same,"Measured concentration, Mean ± SD",[2]; [10],2.1 ± 0.1 ng/mL
same,RE (relative error vs nominal),[2]; [10],6.1%
same,"Measured concentration, Mean ± SD",[2]; [11],199.3 ± 4.8 ng/mL
same,RE (relative error vs nominal),[2]; [11],−0.4%
same,"Measured concentration, Mean ± SD","[2]; rat plasma, room temperature at least 3 h, nominal 1600 ng/ml",1603.9 ± 24.6 ng/mL
same,"Measured concentration, Mean ± SD",[2]; [12],2.0 ± 0.1 ng/mL
same,RE (relative error vs nominal),[2]; [12],1.0%
same,"Measured concentration, Mean ± SD",[2]; [13],220.3 ± 8.5 ng/mL
same,RE (relative error vs nominal),[2]; [13],10.2%
same,"Measured concentration, Mean ± SD",[2]; [14],1773.7 ± 57.6 ng/mL
same,RE (relative error vs nominal),[2]; [14],10.9%
same,Stability in plasma samples (in words),"[2]; rat plasma, room temperature, 10°C, three freeze (−80°C)/thaw (RT) cycles, −80°C for 21 days",stable
same,AUC(0-inf),[3],3600 ± 1540 ng·h/mL
same,AUC(0-t),[3],3590 ± 1540 ng·h/mL
same,Cmax,[3],1930 ± 1030 ng/mL
same,Tmax,[3],0.56 ± 0.17 h
same,half-life,[3],8.25 ± 5.64 h
